Values after ≈ are worked out from the molar mass of the structure shown. Where two headings read alike, the source gives them in different places.

Experimental findings from US7279494B2, “Antimicrobial [3.1.0] bicyclohexylphenyl-oxazolidinone derivatives and analogues” (Pfizer Inc., priority 2003, dated 2007) are described below.

Holding throughout (type): cell-based
For one test, the system named is S. aureus UC9213. In words: MIC by standard agar dilution, S. aureus UC9213. To be noted: Staphylococcus aureus, UC9213, Mueller Hinton agar, incubated overnight at 35° C. The source says:
(§1) The in vitro activity of compounds of the subject invention may be assessed by standard testing procedures such as the determination of minimum inhibitory concentration (MIC) by agar dilution as described in “Approved Standard. Methods for Dilution Antimicrobial Susceptibility Tests for Bacteria that Grow Aerobically,” 3rd ed., published 1993 by the National Committee for Clinical Laboratory standards, Villanova, Pa., USA.
(§2) The in vitro MICs of test compounds may be determined by a standard agar dilution method. A stock drug solution of each analog is prepared in a preferred solvent, usually DMSO:H2O (1:3). Serial 2-fold dilutions of each sample are made using 1.0 mL aliquots of sterile distilled water. To each 1.0 mL aliquot of drug is added 9 mL of molten Mueller Hinton agar medium. The drug-supplemented agar is mixed, poured into 15×100 mm petri dishes, and allowed to solidify and dry prior to inoculation.
(§3) Vials of each of the test organisms are maintained frozen in the vapor phase of a liquid nitrogen freezer. Test cultures are grown overnight at 35° C. on the medium appropriate for the organism. Colonies are harvested with a sterile swab, and cell suspensions are prepared in Trypticase Soy broth (TSB) to equal the turbidity of a 0.5 McFarland standard. A 1:20 dilution of each suspension is made in TSB. The plates containing the drug supplemented agar are inoculated with a 0.001 mL drop of the cell suspension using a Steers replicator, yielding approximately 10^4 to 10^5 cells per spot. The plates are incubated overnight at 35° C.
(§4) Following incubation the Minimum Inhibitory Concentration (MIC μg/mL), the lowest concentration of drug that inhibits visible growth of the organism, is read and recorded.

Another test concerns S. pneumoniae UC9912. Kind of test: MIC by standard agar dilution, S. pneumoniae UC9912. The note with it: Streptococcus pneumoniae, UC9912, Mueller Hinton agar, incubated overnight at 35° C.
Source text: as §1, §2, §3, §4
A general note: In agar dilution, organisms are placed on agar that contains the substance at set levels.

The next test deals with H. influenzae 30063. In words: MIC by standard agar dilution, H. influenzae 30063.
Source text: as §1, §2, §3, §4

Where [1] appears, read: Haemophilus influenzae, 30063, agar dilution, Mueller Hinton agar, incubated overnight at 35° C., read-out: H. influenzae 30063 MIC.

Regarding `CC(=O)NC[C@H]1CN(c2ccc([C@H]3[C@@H]4CN(C(=O)CO)C[C@@H]43)c(F)c2)C(=O)O1` [Example 5, N-[((5S)-3-{3-fluoro-4-[exo-(1R,5S)-3-glycoloyl-3-azabicyclo[3.1.0]hex-6-yl]phenyl}-2-oxo-1,3-oxazolidin-5-yl)methyl]acetamide], the values for the MIC in the test with S. aureus UC9213, with S. pneumoniae UC9912 and with H. influenzae 30063 (setting [1]) were 2 µg/mL (≈ 5.11 µM), 0.25 µg/mL (≈ 0.639 µM) and 4 µg/mL (≈ 10.2 µM), respectively.

As to `CC(=O)NC[C@H]1CN(c2ccc([C@H]3[C@@H]4CN(C(=O)C(C)(C)O)C[C@@H]43)c(F)c2)C(=O)O1` [Example 32, N-[((5S)-3-{3-fluoro-4-[exo-(1R,5S)-3-(2-hydroxy-2-methyl-propanoyl)-3-azabicyclo[3.1.0]hex-6-yl]phenyl}-2-oxo-1,3-oxazolidin-5-yl)methyl]acetamide], the results for the MIC against S. aureus UC9213, with S. pneumoniae UC9912 and in the test with H. influenzae 30063 (setting [1]) were 2 µg/mL (≈ 4.77 µM), 0.5 µg/mL (≈ 1.19 µM) and 8 µg/mL (≈ 19.1 µM), respectively.

As to `CC(=O)NC[C@H]1CN(c2ccc([C@H]3[C@@H]4C[S+]([O-])C[C@@H]43)cc2)C(=O)O1` (stereo partly drawn) [Example 18, N-[((5S)-3-{4-[exo-(1R,5S)-3-oxido-3-thiabicyclo[3.1.0]hex-6-yl]phenyl}-2-oxo-1,3-oxazolidin-5-yl)methyl]acetamide], the MIC against S. aureus UC9213 is 2 µg/mL (≈ 5.74 µM); in the test with S. pneumoniae UC9912 it was 0.5 µg/mL (≈ 1.44 µM); in the test with H. influenzae 30063 (setting [1]) it was 4 µg/mL (≈ 11.5 µM).

On to `CC(=O)NC[C@H]1CN(c2ccc([C@H]3[C@@H]4COC[C@@H]43)c(F)c2)C(=O)O1` [Example 4, N-[((5S)-3-{3-fluoro-4-[exo-(1R,5S)-3-oxabicyclo[3.1.0]hex-6-yl]phenyl}-2-oxo-1,3-oxazolidin-5-yl)methyl]acetamide], for which the MIC in the test on S. aureus UC9213 is 4 µg/mL (≈ 12 µM); with S. pneumoniae UC9912, 0.5 µg/mL (≈ 1.5 µM); in the test with H. influenzae 30063 (setting [1]) it was 4 µg/mL (≈ 12 µM).

`CC(=O)NC[C@H]1CN(c2ccc([C@H]3[C@@H]4CS(=O)(=O)C[C@@H]43)cc2)C(=O)O1` [Example 19, N-[((5S)-3-{4-[exo-(1R,5S)-3,3-dioxido-3-thiabicyclo[3.1.0]hex-6-yl]phenyl}-2-oxo-1,3-oxazolidin-5-yl)methyl]acetamide]: the MIC against S. aureus UC9213 was 4 µg/mL (≈ 11 µM); against S. pneumoniae UC9912, 1 µg/mL (≈ 2.74 µM); in the test on H. influenzae 30063 (setting [1]), 8 µg/mL (≈ 22 µM).

Consider `O=C(CO)NC[C@H]1CN(c2ccc([C@H]3[C@@H]4CS(=O)(=O)C[C@@H]43)c(F)c2)C(=O)O1` [Example 67, N-[((5S)-3-{3-fluoro-4-{exo-(1R,5 S)-3,3-dioxido-3-thiabicyclo[3.1.0]hex-6-yl]phenyl}-2-oxo-1,3-oxazolidin-5-yl)methyl]-2-hydroxyacetamide], for which the MIC with S. aureus UC9213, in the test on S. pneumoniae UC9912 and with H. influenzae 30063 (setting [1]) was 4 µg/mL (≈ 10 µM) throughout.

`CCC(=O)NC[C@H]1CN(c2cc(F)c([C@H]3[C@@H]4CS(=O)(=O)C[C@@H]43)c(F)c2)C(=O)O1` [Example 59, N-[((5S)-3-{3,5-difluoro-4-[exo-(1R,5S)-3,3-dioxido-3-thiabicyclo[3.1.0]hex-6-yl]phenyl}-2-oxo-1,3-oxazolidin-5-yl)methyl]propanamide]: the MIC came to 1 µg/mL (≈ 2.41 µM) in the test with S. aureus UC9213, 1 µg/mL (≈ 2.41 µM) in the test with S. pneumoniae UC9912 and 4 µg/mL (≈ 9.65 µM) in the test with H. influenzae 30063 (setting [1]).

With `CCC(=O)NC[C@H]1CN(c2ccc([C@H]3[C@@H]4CS(=O)(=O)C[C@@H]43)c(F)c2)C(=O)O1` [Example 51, N-[((5S)-3-{4-[exo-(1R,5S)-3,3-dioxido-3-thiabicyclo[3.1.0]hex-6-yl]-3-fluorophenyl}-2-oxo-1,3-oxazolidin-5-yl)methyl]propanamide], the MIC against S. aureus UC9213 came to 2 µg/mL (≈ 5.04 µM); against S. pneumoniae UC9912, 1 µg/mL (≈ 2.52 µM); in the test with H. influenzae 30063 (setting [1]), 8 µg/mL (≈ 20.2 µM).

Regarding `CC(=O)NC[C@H]1CN(c2ccc([C@H]3[C@@H]4CN(C(=O)c5cn[nH]c5)C[C@@H]43)c(F)c2)C(=O)O1` [Example 40, N-[((5S)-3-{3-fluoro-4-[exo-(1R,5S)-3-(1H-pyrazole-4-carbonyl)-3-azabicyclo[3.1.0]hex-6-yl]phenyl}-2-oxo-1,3-oxazolidin-5-yl)methyl]acetamide], the MIC in the test on S. aureus UC9213 was determined as 4 µg/mL (≈ 9.36 µM); in the test on S. pneumoniae UC9912, 2 µg/mL (≈ 4.68 µM); in the test with H. influenzae 30063 (setting [1]) it was 16 µg/mL (≈ 37.4 µM).

Turning to `CC(=O)NC[C@H]1CN(c2cc(F)c([C@H]3[C@@H]4COC[C@@H]43)c(F)c2)C(=O)O1` [Example 14, N-[((5S)-3-{3,5-difluoro-4-[exo-(1R,5S)-3-oxabicyclo[3.1.0]hex-6-yl]phenyl}-2-oxo-1,3-oxazolidin-5-yl)methyl]acetamide], the MIC was found to be 2 µg/mL (≈ 5.68 µM) in the test on S. aureus UC9213, 0.5 µg/mL (≈ 1.42 µM) in the test on S. pneumoniae UC9912 and 16 µg/mL (≈ 45.4 µM) with H. influenzae 30063 (setting [1]).

Turning to `CC(=O)NC[C@H]1CN(c2cc(F)c([C@H]3[C@@H]4CS(=O)(=O)C[C@@H]43)c(F)c2)C(=O)O1` [Example 13, N-[((5S)-3-{4-[exo-(1R,5S)-3,3-dioxido-3-thiabicyclo[3.1.0]hex-6-yl]-3,5-difluorophenyl}-2-oxo-1,3-oxazolidin-5-yl)methyl]acetamide], the MIC with S. aureus UC9213 stood at 1 µg/mL (≈ 2.5 µM); in the test with S. pneumoniae UC9912, 0.5 µg/mL (≈ 1.25 µM); in the test on H. influenzae 30063 (setting [1]), 8 µg/mL (≈ 20 µM).

Take `CC(=O)NC[C@H]1CN(c2ccc([C@H]3[C@@H]4CN(N(C)C)C[C@@H]43)c(F)c2)C(=O)O1` [Example 49, N-[((5S)-3-{3-fluoro-4-[exo-(1R,5S)-3-dimethylamino-3-azabicyclo[3.1.0]hex-6-yl]phenyl}-2-oxo-1,3-oxazolidin-5-yl)methyl]acetamide]: the MIC in the test on S. aureus UC9213, in the test with S. pneumoniae UC9912 and in the test on H. influenzae 30063 (setting [1]) was above 64 µg/mL each time.

Consider `CC(=O)NC[C@H]1CN(c2ccc([C@H]3[C@@H]4CN(C(=O)c5cc[nH]n5)C[C@@H]43)c(F)c2)C(=O)O1` [Example 38, N-[((5S)-3-{3-fluoro-4-[exo-(1R,5S)-3-(1H-pyrazole-3-carbonyl)-3-azabicyclo[3.1.0]hex-6-yl]phenyl}-2-oxo-1,3-oxazolidin-5-yl)methyl]acetamide], for which the MIC with S. aureus UC9213 was determined as 2 µg/mL (≈ 4.68 µM); with S. pneumoniae UC9912 it was 2 µg/mL (≈ 4.68 µM); in the test with H. influenzae 30063 (setting [1]), 8 µg/mL (≈ 18.7 µM).

For `CC(=O)NC[C@H]1CN(c2ccc([C@H]3[C@@H]4CN(C(=O)C5CC5)C[C@@H]43)c(F)c2)C(=O)O1` [Example 30, N-[((5S)-3-{3-fluoro-4-[exo-(1R,5S)-3-cyclopropanecarbonyl-3-azabicyclo[3.1.0]hex-6-yl]phenyl}-2-oxo-1,3-oxazolidin-5-yl)methyl]acetamide], the results for the MIC in the test with S. aureus UC9213, against S. pneumoniae UC9912 and in the test with H. influenzae 30063 (setting [1]) were 4 µg/mL (≈ 9.96 µM), 4 µg/mL (≈ 9.96 µM) and 16 µg/mL (≈ 39.9 µM), respectively.

Consider `O=C(CO)NC[C@H]1CN(c2ccc([C@H]3[C@@H]4C[S+]([O-])C[C@@H]43)c(F)c2)C(=O)O1` (stereo partly drawn) [Example 66, N-[((5S)-3-{3-fluoro-4-[exo-(1R,5S)-3-oxido-3-thiabicyclo[3.1.0]hex-6-yl]phenyl}-2-oxo-1,3-oxazolidin-5-yl)methyl]-2-hydroxyacetamide], for which the MIC came to 4 µg/mL (≈ 10.5 µM) in the test with S. aureus UC9213, 2 µg/mL (≈ 5.23 µM) with S. pneumoniae UC9912 and 8 µg/mL (≈ 20.9 µM) in the test on H. influenzae 30063 (setting [1]).

As for `CC(=O)NC[C@H]1CN(c2ccc([C@H]3[C@@H]4CN(C(=O)C(F)F)C[C@@H]43)c(F)c2)C(=O)O1` [Example 34, N-[((5S)-3-{3-fluoro-4-[exo-(1R,5S)-3-difluoroacetyl-3-azabicyclo[3.1.0]hex-6-yl]phenyl}-2-oxo-1,3-oxazolidin-5-yl)methyl]acetamide], the MIC was 2 µg/mL (≈ 4.86 µM) against S. aureus UC9213; 1 µg/mL (≈ 2.43 µM) against S. pneumoniae UC9912; 8 µg/mL (≈ 19.4 µM) in the test on H. influenzae 30063 (Haemophilus influenzae, 30063, read-out: H. influenzae 30063 MIC).

As for `CC(=O)NC[C@H]1CN(c2ccc([C@H]3[C@@H]4CN(C(=O)[C@@H]5CCCO5)C[C@@H]43)c(F)c2)C(=O)O1` [Example 42, N-[((5S)-3-{3-fluoro-4-[exo-(1R,5S)-3-(tetrahydrofaran-2-(S)-carbonyl)-3-azabicyclo[3.1.0]hex-6-yl]phenyl}-2-oxo-1,3-oxazolidin-5-yl)methyl]acetamide], the MIC against S. aureus UC9213 stood at 8 µg/mL (≈ 18.5 µM); with S. pneumoniae UC9912, 4 µg/mL (≈ 9.27 µM); in the test with H. influenzae 30063 (setting [1]) it was 32 µg/mL (≈ 74.2 µM).

Regarding `O=C(NC[C@H]1CN(c2ccc([C@H]3[C@@H]4C[S+]([O-])C[C@@H]43)c(F)c2)C(=O)O1)C1CC1` (stereo partly drawn) [Example 52, N-[((5S)-3-{3-fluoro-4-[exo-(1R,5S)-3-oxido-3-thiabicyclo[3.1.0]hex-6-yl]phenyl}-2-oxo-1,3-oxazolidin-5-yl)methyl]cyclopropanecarboxamide], the results for the MIC in the test with S. aureus UC9213, against S. pneumoniae UC9912 and with H. influenzae 30063 (setting [1]) were 4 µg/mL (≈ 10.2 µM), 1 µg/mL (≈ 2.55 µM) and 4 µg/mL (≈ 10.2 µM), respectively.

Regarding `N#CCC(=O)NC[C@H]1CN(c2ccc([C@H]3[C@@H]4C[S+]([O-])C[C@@H]43)c(F)c2)C(=O)O1` (stereo partly drawn) [Example 68, 2-cyano-N-[((5S)-3-{3-fluoro-4-[exo-(1R,5S)-3-oxido-3-thiabicyclo[3.1.0]hex-6-yl]phenyl}-2-oxo-1,3-oxazolidin-5-yl)methyl]acetamide], the MIC is 4 µg/mL (≈ 10.2 µM) with S. aureus UC9213, 1 µg/mL (≈ 2.55 µM) against S. pneumoniae UC9912 and 8 µg/mL (≈ 20.4 µM) in the test with H. influenzae 30063 (setting [1]).

For `CCNC(=O)N1C[C@@H]2[C@H](C1)[C@H]2c1ccc(N2C[C@H](CNC(=O)CC)OC2=O)cc1F` [Example 25, exo-(1R,5S)-6-(4-{(5S)-5-[(propanoylamino)methyl]-2-oxo-1,3-oxazolidin-3-yl}-2-fluorophenyl)-3-azabicyclo[3.1.0]hexane-3-ethylcarboxamide], the MIC with S. aureus UC9213 was 8 µg/mL (≈ 19.1 µM); in the test on S. pneumoniae UC9912, 4 µg/mL (≈ 9.56 µM); in the test on H. influenzae 30063 (setting [1]) it was 32 µg/mL (≈ 76.5 µM).
